Source: publication PMC6832257, “Design, Synthesis and Evaluation of New Indolylpyrimidylpiperazines for Gastrointestinal Cancer Therapy” (Molecules, 2019)
Read-outs that look alike come from different tables or passages of the source.

Legend:
hA3AR [1] = biological target: T1, hA3AR (Homo sapiens, UniProt P0DMS8); assay: TGFα shedding assay at hA3AR; assay type: cell-based; conditions: for Emax: HEK293 cells; for EC50: hA3AR-expressing HEK293 cells
T1 construct: expressed in transfected cells; host or cells: HEK293
T1 sequence (P0DMS8 1-318): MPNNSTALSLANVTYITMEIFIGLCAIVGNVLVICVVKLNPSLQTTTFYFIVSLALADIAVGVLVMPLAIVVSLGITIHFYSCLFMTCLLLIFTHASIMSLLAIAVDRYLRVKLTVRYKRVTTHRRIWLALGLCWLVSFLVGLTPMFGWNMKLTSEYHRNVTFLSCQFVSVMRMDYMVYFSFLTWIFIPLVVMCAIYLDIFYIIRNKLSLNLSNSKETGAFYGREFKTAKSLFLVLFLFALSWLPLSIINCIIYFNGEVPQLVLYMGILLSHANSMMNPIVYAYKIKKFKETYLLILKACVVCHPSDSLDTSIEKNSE
Procedure: This recently-developed assay utilizes an alkaline phosphatase-TGFα fusion protein reporter system to quantitatively evaluate specific GPCR-mediated G protein activation (shown in Figure 3) of test compounds [22].
Expression vectors (250 ng of AP-TGFα plasmid, 100 ng of hA2AAR/hA3AR plasmid and 50 ng of Gα protein) were transfected into HEK293 cells using Lipofectamine 2000 (1.25 μL/well) in 12-well plates. Transfection of siRNA (final concentration: 10 nM) was conducted with Lipofectamine RNAiMAX (1 μL/well), 48 h before assay to prevent interference from other signaling pathways. Transfected cells were detached with brief treatment with phosphate-buffered saline (PBS) containing 0.05% trypsin and 0.52 mM ethylenediaminetetraacetic acid (EDTA). The cell suspension was pelleted via centrifugation (190 g, 5 min). Trypsin was removed from the cells via resuspension in PBS, followed by 5 min of incubation at room temperature. Cells were subsequently pelleted with centrifugation (190 g, 5 min) and resuspended in Hank’s Balanced Salt Solution (HBSS) containing 5 mM 4-(2-hydroxyethyl)-1-piperazineethanesulfonic acid (HEPES) (pH 7.4). Resuspended cells were plated in 90 μL/well in 96-well plate and incubated at 37 °C in 5% CO2 for 30 min. 10 μL of 10X concentration of compounds were added and incubated for 1 h at 37 °C in 5% CO2. Plates were centrifuged at 190 g for 2 min. […] per well of conditioned medium (10 mM p-NPP, 40 mM Tris-HCl (pH 9.5), 40 mM NaCl & 10 mM MgCl2) was transferred into a conditioned medium plate and 80 µL per well of conditioned medium was added to the test compound plate. Absorbance at 405 nm (OD405) of both plates was read before and after a 1-h incubation at 37 °C using a microplate reader.

hA1 = conditions: cited from earlier work
hA2AAR = biological target: T2, hA2AAR (Homo sapiens, UniProt P29274); conditions: ratio of binding affinities; cited from earlier work
T2 construct: expressed in transfected cells; host or cells: HEK293

hA2B = conditions: cited from earlier work
hA3AR [2] = biological target: T1, hA3AR; conditions: read-out: Ki hA3; cited from earlier work
HCT-116 cell line = assay: MTT cytotoxicity assay, HCT-116; assay type: cell-based; conditions: Homo sapiens; HCT-116, MTT, 72 h
Procedure: (§1) Human colorectal carcinoma cell lines, HCT-116 and Caco-2, were used as models for colorectal cancer cells overexpressing hA3AR. Human normal colon cell line CCD-18Co was used as a model for normal colon cells that express normal levels of hA3AR. The HCT-116, Caco-2 and CCD-18Co cell lines were all cultured in accordance with the ATCC protocols.
(§2) The cytotoxicity of compound 4 was determined by 3-(4,5-dimethylthiazol-2-yl)-2,5-diphenyltetrazolium bromide (MTT) assay. The cells were harvested from culture flasks by trypsinisation and seeded into 96-well microculture plates (Costar, Corning, USA) at the seeding density of 6000 cells per well or 10,000 per well (CCD18Co). After the cells were allowed to resume exponential growth for 24 h, they were exposed to compound 4 or 2-Cl-IB-MECA in media for 72 h. The drugs were diluted in complete medium at the desired concentration, and 100 μL of the drug solution was added to each well and serially diluted to other wells. After exposure for 72 h, drug solutions were replaced with 100 μL of MTT in complete media (5 mg ml^−1) and incubated for an additional 1 h. Subsequently, the medium was aspirated and the purple formazan crystals formed in viable cells were dissolved in 100 μL of dimethyl sulfoxide (DMSO) per well. Optical densities were measured at 570 nm with a microplate reader. […]

Caco-2 cell line = assay: MTT cytotoxicity assay, Caco-2; assay type: cell-based; conditions: Homo sapiens; Caco-2, MTT, 72 h
Procedure: as §1, §2

HepG2 cell line = assay: MTT cytotoxicity assay, HepG2; assay type: cell-based; conditions: Homo sapiens, 72 h
Procedure: The HepG2 cell line was also cultured in accordance with the ATCC protocol.
as §2, with “reader. The quantity of viable cells was expressed in terms of treated/control (T/C) values by comparison to untreated control cells, and 50% inhibitory concentrations (IC50) were calculated from concentration-effect curves by interpolation using GraphPad Prism (Version 5.0, GraphPad Software, USA).” for “reader.”

hA3AR [3] = biological target: T1, hA3AR; conditions: cited from earlier work
CCD-18Co cell line = assay: MTT cytotoxicity assay, CCD-18Co; assay type: cell-based; conditions: Homo sapiens, CCD-18Co normal colon cell line, 72 h
Procedure: as §1, §2

UV-vis stability assay = assay type: physicochemical; conditions: 50 μM in water, RPMI-1640 and DMEM culture medium over 72 h
Procedure: Stock solution of 50 μM of compound 4 was prepared in DMSO. Two quartz cuvettes were soaked in 70% ethanol in water for 1h. The quartz cuvettes were subsequently left to dry in a biological safety cabinet. When both quartz cuvettes were dry, the quartz cuvettes, i.e., sample cuvette and blank cuvette, were filled with water or culture media (RPMI-1640 or DMEM) and parafilmed before being transferred into a UV-vis spectrophotometer (USA). The UV-vis spectrophotometer was auto-zeroed and the background was scanned from wavelengths of 200 nm to 800 nm. The sample cuvette was removed from the UV-vis spectrophotometer and transferred into the biological safety cabinet. Compound 4 was dissolved at a final concentration of 50 μM in 1.5 mL of water, RPMI or DMEM containing 10% FBS (without phenol red). The UV−vis profiles of the samples were monitored using UV-vis over 72 h at 1 h intervals from 200 to 800 nm.

[4] = system: human colon carcinoma patients; conditions: phase II; cited from earlier work
[5] = HEK293, efficacy as compared to adenosine, read-out: Emax

T2 sequence (P29274 whole entry): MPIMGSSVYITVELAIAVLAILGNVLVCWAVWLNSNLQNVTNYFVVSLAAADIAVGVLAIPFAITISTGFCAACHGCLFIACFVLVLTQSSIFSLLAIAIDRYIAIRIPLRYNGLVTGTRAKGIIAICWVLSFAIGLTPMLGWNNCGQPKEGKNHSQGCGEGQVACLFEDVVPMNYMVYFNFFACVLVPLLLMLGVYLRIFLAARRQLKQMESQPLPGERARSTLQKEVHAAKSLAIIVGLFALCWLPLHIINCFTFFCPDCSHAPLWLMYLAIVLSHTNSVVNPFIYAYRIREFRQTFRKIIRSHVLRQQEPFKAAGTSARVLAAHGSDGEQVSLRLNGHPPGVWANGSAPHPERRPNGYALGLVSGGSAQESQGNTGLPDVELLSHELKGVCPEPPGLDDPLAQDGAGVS

In the case of `Nc1ncnc2c1ncn2[C@@H]1O[C@H](CO)[C@@H](O)[C@H]1O` [Adenosine, reference compound], the Emax (hA3AR [1]; [5]) is reported as 100%.

For `Cc1cc(C)nc(N2CCN(C(=O)Cc3c(C)[nH]c4ccccc34)CC2)n1` [Compound 1, indolylpyrimidylpiperazine (IPP)], the Ki (hA1) is given as > 100 µM, the “selectivity hA2AAR/hA3AR” value (hA2AAR) is given as > 12 and the Ki (hA2B) is given as > 20 µM. For the same compound, the Ki (hA3AR [2]) was > 100 µM.

In the case of `Cc1cc(C)nc(N2CCN(CCc3c(C)[nH]c4ccccc34)CC2)n1` [Compound 2, decarbonyl IPP], the Ki (hA1) is listed as > 100 µM and the Ki (hA2B) is listed as > 20 µM.

Work on `CNC(=O)[C@H]1O[C@@H](n2cnc3c(NCc4cccc(I)c4)nc(Cl)nc32)[C@H](O)[C@@H]1O` [Compound 2-Cl-IB-MECA, 2-Cl-IB-MECA, reference compound] yielded an IC50 (HCT-116 cell line) of 21 ± 6 µM, an IC50 (Caco-2 cell line) of 31 ± 4 µM and an IC50 (HepG2 cell line) of 13 ± 3 µM. For the same compound, the β-arrestin translocation response (hA3AR [3]) was 102 ± 13%.

In the case of `Cc1cc(C)nc(N2CCN(CC(=O)c3c[nH]c4ccccc34)CC2)n1` [Compound 3, 2-(4-(4,6-Dimethylpyrimidin-2-yl)piperazin-1-yl)-1-(1H-indol-3-yl)ethanone], the EC50 (hA3AR [1]) is reported as “essentially inactive” and the melting point is reported as 165 °C (dec.).

In the case of `COc1cccc2c(C(=O)CN3CCN(c4nc(C)cc(C)n4)CC3)c[nH]c12` [Compound 4, 2-(4-(4,6-Dimethylpyrimidin-2-yl)piperazin-1-yl)-1-(7-methoxy-1H-indol-3-yl)ethanone], the Emax (hA3AR [1]; [5]) is reported as 30%, the Emax (hA3AR [1]; efficacy as compared to adenosine) is reported as 31% and the EC50 (hA3AR [1]; read-out: EC50) is reported as 2.89 ± 0.55 µM. The IC50 (HCT-116 cell line) was 84 ± 9 µM, the IC50 (Caco-2 cell line) was 77 ± 10 µM and the IC50 (CCD-18Co cell line) was 176 ± 48 µM. The IC50 (HepG2 cell line) was 30 ± 7 µM, the “Stability (UV-vis)” value (UV-vis stability assay) was “excellent stability” and the melting point was 162 °C (dec.).

For `Cc1cc(C)nc(N2CCN(CC(=O)c3c[nH]c4c(Cl)cccc34)CC2)n1` [Compound 5, 2-(4-(4,6-Dimethylpyrimidin-2-yl)piperazin-1-yl)-1-(7-chloro-1H-indol-3-yl)ethanone], the Emax (hA3AR [1]; [5]) was 77%, the EC50 (hA3AR [1]; read-out: EC50) was 13.4 ± 2.96 µM and the melting point was 163 °C (dec.).

In the case of `Cc1cc(C)nc(N2CCN(CC(=O)c3c[nH]c4c([N+](=O)[O-])cccc34)CC2)n1` [Compound 6, 2-(4-(4,6-Dimethylpyrimidin-2-yl)piperazin-1-yl)-1-(7-nitro-1H-indol-3-yl)ethanone], the Emax (hA3AR [1]; [5]) is reported as 72%, the EC50 (hA3AR [1]; read-out: EC50) is reported as 33.2 ± 16.5 µM and the melting point is reported as 165 °C (dec.).

For `CNC(=O)[C@H]1O[C@@H](n2cnc3c(NCc4cccc(I)c4)ncnc32)[C@H](O)[C@@H]1O` [IB-MECA], the β-arrestin translocation response (hA3AR [3]) is given as 100 ± 7% and the “disease stabilization, share of patients” value [4] is given as 35%.

In the case of `OC[C@H]1O[C@@H](n2cnc3c(NCc4cccc(I)c4)ncnc32)[C@H](O)[C@@H]1O` [MRS541], the β-arrestin translocation response (hA3AR [3]) is listed as 30.8 ± 1.6%.
